According to patent US11168319B1, “Plant cell culture” (Inari Agriculture Technology, Inc., priority 2017, dated 2021):
Several values for one entry are separate records, joined by “and”; a condition that tells them apart may be missing. Equal values may be shown once. Read-outs that look alike come from different tables or passages of the source.

Legend:
maize B73 protoplasts = details: for Viability (%): 100 mM Ca; for protoplast viability: 288 hours, YPIM B- medium
Procedure: Separate suspensions of maize B73 and A188 protoplasts (2×10^5 cells per milliliter) were prepared in YPIM B-liquid medium containing various combinations of the added salts calcium chloride, potassium ascorbate, and magnesium chloride or magnesium sulfate. One-half milliliter aliquots of the suspensions were dispensed into a 24-well microtiter plate in the arrangement shown in Table 2, which lists the concentrations of calcium chloride (“Ca”), potassium ascorbate (“A”), and magnesium chloride (“MgCl2”) or magnesium sulfate (“MgSO4”) in millimolar values.
Viability was judged by Evans blue staining and visualization under a light microscope.
Separate suspensions of maize B73, winter wheat, soy, and strawberry protoplasts (2×10^5 cells per milliliter) were prepared in YPIM B-liquid medium containing calcium chloride at 0, 50, or 100 millimolar. One-half milliliter aliquots of the suspensions were dispensed into a 24-well microtiter plate.
Viability at day 8 of culture was judged by visualization under a light microscope.
Viability at day 13 was judged by Evans blue staining and visualization under a light microscope.
(§1) Separate suspensions of maize B73 protoplasts (2×10^5 cells per milliliter) were prepared in PIM B-liquid medium (identical to YPIM B-medium except with the 6-benzylaminopurine substituted with 0.022 milligrams/L thidiazuron) containing calcium chloride added at 0, 5, 20, 40, 70, or 100 millimolar. One-half milliliter aliquots of the suspensions were dispensed into a 24-well microtiter plate.
Viability was judged by visualization under a light microscope at day 7 and at day 14 of culture.
as §1, with “B73 and A188” for “B73”, “0” for “0, 5, 20, 40, 70,”, “50” for “100”
Viability was judged by visualization under a light microscope.
Separate suspensions of maize B73 and A188 protoplasts (2×10^5 cells per milliliter) were prepared in YPIM B-liquid medium containing (a) calcium chloride added at 100 millimolar, or (b) 1 millimolar glutathione, or (c) no added calcium or glutathione. One-milliliter aliquots of the suspensions were dispensed into a 24-well microtiter plate. At 16, 40, 64, and 136 hours of culture, 50-microliter samples were taken for hemocytometer analysis from each well; for the plates containing maize A188 protoplasts, parallel 50-microliter samples were taken from a replicate well at 16, 40, and 64 hours of culture for quantification using a Cellometer cell counter (Nexcelom Bioscience LLC, Lawrence, Mass.).
Viability was determined by Evans blue staining and quantification using a hemocytometer. Under conditions with high concentrations of calcium, Evans blue can create precipitates that interfere with cell counting; to prevent this, 5 microliters of an EDTA solution was added to the samples from the wells containing 100 millimolar calcium chloride immediately prior to staining.

soybean protoplasts = assay: Protoplast viability (Evans blue staining, light microscope); format: cell-based
[1] = system: winter wheat, soy, and strawberry protoplasts; assay: Protoplast viability by light microscope, other species; format: cell-based; details: day 8, 0, 50 or 100 millimolar calcium
maize A188 protoplasts = assay: Signs of cell division by microscopy under 5% or 21% oxygen; format: cell-based; details: day 8, 100 millimolar Ca^2+ in YPIM B-, 5% oxygen vs 21% oxygen by volume
Procedure: (§2) Cell division was monitored, e.g., by microscopic observations. […] Evidence of cell division was observed by microscopy and included increased cell or protoplast size, bulging membranes, and large groups of organelles occupying the separating daughter cells. Quantification of cell division was carried out using fluorescent staining. Cells were treated with the thymidine analogue 5-ethynyl-2′-deoxyuridine (EdU), which is incorporated into DNA during S-phase and can be fluorescently activated using a fluorochrome that has been conjugated to an azide molecule. Cells that are the result of cellular division in the presence of EdU were identified by the resulting green fluorescent signal, which can be quantified by various means, e.g., with a microplate reader, cell counter, or cell sorter.
In one experiment, maize A188 protoplasts were grown under either 5% or 21% oxygen by volume in YPIM B-liquid medium containing 100 millimolar Ca^2+.

maize HiIIA protoplasts = assay: Cell division rate by EdU staining (% EdU); format: cell-based; details: 100 mM Ca^2+
Procedure: as §2
In a separate experiment, maize HiIIA protoplasts were grown in 24-well plates using YPIM B-liquid medium containing 100 millimolar Ca^2+ and 20 micromolar EdU. Identical plates were incubated under hypoxia (5% oxygen by volume, 26 degrees Celsius, 80% relative humidity) or ambient oxygen (21% oxygen by volume, 26 degrees Celsius, 80% relative humidity). Entire wells (250 microliters) were taken for EdU detection at four time points. The contents of each well was centrifuged and the pellet subjected to the Click-iT™ EdU Alexa Fluor™ 488 Imaging Kit (catalogue number C10337, Thermo Fisher Scientific, Waltham, Mass.) fluorescent labelling protocol. The labelled protoplasts were resuspended in YPIM B-medium and samples analyzed on a Nexcelom Cellometer (Nexcelom Bioscience LLC, Lawrence, Mass.). This assay was developed to detect the EdU signal from the nucleus of a cell resulting from cell division, as well as the fluorescent signal from chloroplasts as a measure of total cell count. Results are provided in Table 4 as a percentage of cells displaying the EdU signal relative to the total cell count (“% EdU”).

maize B104 protoplasts = assay: Cell division rate by EdU staining (% EdU); details: O2 5%, Ca^2+ 100 mM, glutathione 0 mM, 90 h
Procedure: Cell division rates are expressed as “% EdU” (percentage of cells displaying the EdU signal relative to the total cell count).
Cell division was monitored, e.g., by microscopic observations. […] Evidence of cell division was observed by microscopy and included increased cell or protoplast size, bulging membranes, and large groups of organelles occupying the separating daughter cells. Quantification of cell division was carried out using fluorescent staining. […] Cells that are the result of cellular division in the presence of EdU were identified by the resulting green fluorescent signal, which can be quantified by various means, e.g., with a microplate reader, cell counter, or cell sorter.
Entire wells (1000 microliters) were taken for EdU detection at three time points; analyses were of duplicate samples of each of two replicate wells.

[2] = day 13, 50 millimolar calcium, Evans blue

Q: What does the source list for `[Ca+2].[Cl-].[Cl-]` [calcium chloride]?
A: Viability (%) (maize B73 protoplasts; 0 hours, hemocytometer): 90%; Viability (%) (maize B73 protoplasts; 16 hours): 65%; Viability (%) (maize B73 protoplasts; 40 hours): 57%; Viability (%) (maize B73 protoplasts; 64 hours): 58%; Viability (%) (maize B73 protoplasts; 136 hours): 30%; protoplast viability (maize B73 protoplasts; 50 mM added salt): almost all dead; protoplast viability (maize B73 protoplasts; 100 mM added salt): 10-20%; viability and cell division (maize B73 protoplasts; PIM B- medium, 100 millimolar calcium): strongest enhanced viability and cell division; viability (maize B73 protoplasts; day 6, PIM B- medium, 50 millimolar calcium): still contained viable cells; viability and cell division (maize B73 protoplasts; day 7, PIM B- medium, 40, 70, or 100 millimolar calcium): formed clusters of viable, healthy cells with cell division occurring; viability (maize B73 protoplasts; day 7, PIM B- medium, less than 40 millimolar calcium): dead; viability (maize B73 protoplasts; day 8, 50 millimolar calcium, YPIM B-, light microscope): 30%; viability (maize B73 protoplasts; day 8, 100 millimolar calcium, YPIM B-, light microscope): 80%; viability (maize B73 protoplasts; [2]): 0%; viability of the maize protoplasts (second statement in the sentence) (maize B73 protoplasts; [2]): 50%; viability (maize B73 protoplasts; day 13, 100 millimolar calcium, Evans blue): 10%; viability (soybean protoplasts; day 13, 50 millimolar calcium): 50%; viability (soybean protoplasts; day 13, 100 millimolar calcium): 50%; viability [1]: no large differences; signs of cell division (maize A188 protoplasts): many more protoplasts displaying signs of cell division; % EdU (maize HiIIA protoplasts; 5% oxygen by volume, 93 hours): 12%; % EdU (maize HiIIA protoplasts; 5% oxygen by volume, 117 hours): 19%; % EdU (maize HiIIA protoplasts; 5% oxygen by volume, 165 hours, listed as Ca^2+): 19% and 15%; % EdU (maize HiIIA protoplasts; 21% oxygen by volume, 93 hours): 6.5%; % EdU (maize HiIIA protoplasts; 21% oxygen by volume, 117 hours, listed as Ca^2+): 6.9% and 8.0%; % EdU (maize HiIIA protoplasts; 21% oxygen by volume, 141 hours, listed as Ca^2+): 13% and 4.8%; % EdU (maize HiIIA protoplasts; 21% oxygen by volume, 165 hours, listed as Ca^2+): 5.0% and 0.0%; plant protoplast viability (plant protoplasts; about 40 millimolar or about 50 millimolar): Even higher levels of plant protoplast viability; protoplast viability (plant protoplasts; between or about 50 to about 100 millimolar, several titration experiments): greatest improvement in protoplast viability; plant protoplast viability (plant protoplasts; culture medium contains about 30 millimolar): Beneficial effects; EdU staining mean % (maize B104 protoplasts): 21.9%
